Seven compounds from US6800651B2 (Eli Lilly and Company, priority 2000, dated 2004) can be followed below.

In one series the target is mGlu2 receptor (Homo sapiens, UniProt Q14416). The series is described as follows: Potentiation of glutamate-induced increase in intracellular calcium with a mGluR2 expressing cell line (FLIPR). The series is classed as cell-based. On the set-up: expressed in transfected cells; host or cells: RGT cells (co-transfected with GLAST), stably transfected with Galpha15. Particulars: for Emax / Emax at 3 µM / Emax at 1 µM: read-out: % Maximal Response (mean ± SD, n = 2); for Emax at 3 µM: 3 μM compound, Buffer (no agonist); for Emax at 1 µM: 1 μM compound, no agonist, glutamate series 30 μM to 10 nM. On the procedure: Potentiation of Glutamate-Induced Increase in Intracellular Calcium with a mGluR2 Expressing Cell Line.
Sequence of mGlu2 receptor (Q14416 19-872): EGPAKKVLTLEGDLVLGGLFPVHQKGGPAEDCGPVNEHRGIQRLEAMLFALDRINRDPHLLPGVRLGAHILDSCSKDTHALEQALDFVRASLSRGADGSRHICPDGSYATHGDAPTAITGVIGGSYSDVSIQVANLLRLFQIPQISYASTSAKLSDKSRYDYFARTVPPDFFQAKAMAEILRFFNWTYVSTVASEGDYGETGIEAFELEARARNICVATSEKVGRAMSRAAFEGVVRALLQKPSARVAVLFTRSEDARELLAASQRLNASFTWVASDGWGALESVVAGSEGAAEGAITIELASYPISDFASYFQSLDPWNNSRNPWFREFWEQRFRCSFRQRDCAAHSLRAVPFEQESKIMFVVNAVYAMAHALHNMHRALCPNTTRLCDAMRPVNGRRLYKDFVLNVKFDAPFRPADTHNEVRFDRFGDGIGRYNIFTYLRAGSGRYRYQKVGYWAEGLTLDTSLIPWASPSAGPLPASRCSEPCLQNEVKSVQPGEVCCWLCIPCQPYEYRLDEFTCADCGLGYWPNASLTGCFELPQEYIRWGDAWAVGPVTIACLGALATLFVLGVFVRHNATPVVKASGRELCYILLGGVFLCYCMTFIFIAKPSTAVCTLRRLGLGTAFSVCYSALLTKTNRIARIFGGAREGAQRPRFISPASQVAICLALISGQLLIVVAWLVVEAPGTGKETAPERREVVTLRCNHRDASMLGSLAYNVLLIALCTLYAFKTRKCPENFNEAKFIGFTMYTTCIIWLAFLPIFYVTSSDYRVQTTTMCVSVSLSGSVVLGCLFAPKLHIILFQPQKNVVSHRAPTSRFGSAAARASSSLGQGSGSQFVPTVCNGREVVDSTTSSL
Cell lines expressing human mGlu2 receptors were derived as previously described (Desai, Burnett, Mayne, Schoepp, Mol. Pharmacol. 48, 648-657, 1995) and cultured in DMEM with 5% dialyzed fetal bovine serum, 1 mM glutamine, 1 mM sodium pyruvate, 50 μg/ml Geneticin G418, and 0.2 mg/ml hygromycin B. Confluent cultures were passaged weekly. […] The RGT cell line expressing the mGluR2 receptors was stably transfected with the promiscuous G-protein, Galpha15 to change the signaling pathway to the mGlu2 receptor to one that could be easily measured through release of intracellular calcium. Thus, intracellular calcium levels were monitored before and after the addition of drugs on a Fluorometric Imaging Plate Reader (i.e. FLIPR, Molecular Devices). The following buffer was used throughout as an assay buffer: 10 mM KCl, 138 mM NaCl, 5 mM Ca Cl2, 1 mM MgCl2, 4 mM NaH2PO4, 10 mM Glucose, 10 mM HEPES, pH 7.4. Cells that had been plated 48 h prior at a density of 30-40,000 cells per well in a 96-well plate were loaded with a calcium-sensitive dye for 90 min at 25° C. Fluo-3 (2 mM in DMSO, Molecular Probes) were mixed with a equal volume of 10% pluronic acid in DMSO, and diluted to 8 μM into the buffer described above containing 10% fetal bovine serum to make the loading buffer. Following loading of the cells, the loading buffer was removed and replaced with assay buffer prior to drug addition and monitoring on the FLIPR.

A further series deals with mice. The series is described as follows: Electroshock-induced seizures (tonic extensor seizures). Format: in vivo, mouse. Particulars: electroshock 30 minutes later, percentage of mice protected from seizures. As for the experimental part:
Application of electrical stimulation by corneal electrodes to mice can induce tonic hindlimb-extensor seizures. Blockade of tonic extensor seizures induced by electroshock is considered predictive for drugs which block seizure propagation and may be effective in preventing various seizures in humans, including epileptic seizures.
Vehicle or a dose of a test drug are administered to groups of 5 to 10 mice each. Thirty minutes later, electroshock (10 mA, 0.2 sec duration) is administered by transcorneal electrodes. […] The data are reported as the percentage of mice which are protected from seizures.

The mark [1] stands for this setting: 10 nM Glutamate + 1 μM compound.
Where [2] appears, read: 30 nM Glutamate + 1 μM compound.
Setting [3] is: 100 nM Glutamate + 1 μM compound.
[4] abbreviates: 300 nM Glutamate + 1 μM compound.
[5] abbreviates: 10 μM Glutamate + 1 μM compound.
[6] abbreviates: 30 μM Glutamate + 1 μM compound.

Read-outs that look alike come from different tables or passages of the source.

The compound `CCS(=O)(=O)N(Cc1cccnc1F)c1ccc(Oc2ccc(F)cc2F)cc1` [Example 615, N-(4-(2,4-Difluorophenoxy)phenyl)-N-(ethanesulfonyl)-2-fluoropyrid-3-ylmethylamine] had a melting point of 110 to 112 °C.

Turning to `O=S(=O)(CC(F)(F)F)N(Cc1cccnc1)c1ccc(Oc2ccccc2)cc1` [Example 22, N-(4-(Phenoxy)phenyl)-N-(2,2,2-trifluoroethylsulfonyl)pyrid-3-ylmethylamine], the Emax at mGlu2 receptor (1 nM APDC + 3 μM compound) is 0.1 ± 0.7%; at mGlu2 receptor (1 nM DCG IV + 3 μM compound), -0.1 ± 0.6%; on mGlu2 receptor (30 nM APDC + 3 μM compound) it was 0.5 ± 1.5%; on mGlu2 receptor (30 nM DCG IV + 3 μM compound) it was 11.1 ± 6.1%; at mGlu2 receptor (100 nM APDC + 3 μM compound) it was 0.2 ± 0.6%; at mGlu2 receptor (100 nM DCG IV + 3 μM compound), 83.3 ± 10.5%. Besides, the Emax turned out to be 28.4 ± 1.7% on mGlu2 receptor (300 nM APDC + 3 μM compound); 133 ± 5.5% on mGlu2 receptor (300 nM DCG IV + 3 μM compound); 92 ± 3.4% on mGlu2 receptor (1 μM APDC + 3 μM compound); 141 ± 5.9% at mGlu2 receptor (1 μM DCG IV + 3 μM compound); 114 ± 0.8% at mGlu2 receptor (3 μM APDC + 3 μM compound); 153 ± 2.8% on mGlu2 receptor (3 μM DCG IV + 3 μM compound). Besides, the Emax at mGlu2 receptor (10 μM APDC + 3 μM compound) was found to be 119 ± 4%; on mGlu2 receptor (10 μM DCG IV + 3 μM compound) it was 148 ± 1.5%; on mGlu2 receptor (30 μM APDC + 3 μM compound), 120 ± 10%; at mGlu2 receptor (30 μM DCG IV + 3 μM compound) it was 138 ± 7.1%. Further, the Emax at 3 µM at mGlu2 receptor (APDC series) came to 4.7 ± 0.4%; on mGlu2 receptor (DCG IV series), 3.7 ± 1.4%.

On to `COc1ccccc1Oc1cccc(N(Cc2cccnc2)S(=O)(=O)CC(F)(F)F)c1` [Example 1, N-(3-(2-Methoxyphenoxy)phenyl)-N-(2,2,2-trifluoroethylsulfonyl)pyrid-3-ylmethylamine], for which the Emax is -0.3 ± 0.2% at mGlu2 receptor (setting [1]); 2.2 ± 1.3% on mGlu2 receptor (setting [2]); 1.5 ± 1.2% on mGlu2 receptor (setting [3]); 42.5 ± 4.3% on mGlu2 receptor (setting [4]); 79.2 ± 14.6% on mGlu2 receptor (1 μM Glutamate + 1 μM compound); 112 ± 10.3% at mGlu2 receptor (3 μM Glutamate + 1 μM compound). Further, the Emax turned out to be 108 ± 10.7% at mGlu2 receptor (setting [5]) and 117 ± 4.3% at mGlu2 receptor (setting [6]). The Emax at 1 µM at mGlu2 receptor was found to be 0.1 ± 0.1%. Besides, the “% Maximal Glutamate Response (as defined by 30 μM Glutamate) mean ± SD” value came out at 85.5 ± 5.8% on mGlu2 receptor (20 μM compound + 0.5 μM L-glutamate) and 2.3 ± 0.8% on mGlu2 receptor (20 μM compound alone).

`N[C@@H](CCC(=O)O)C(=O)O` [Glutamate, L-glutamate, reference compound]: on mGlu2 receptor (0.5 μM L-glutamate alone), the “% Maximal Glutamate Response (as defined by 30 μM Glutamate) mean ± SD” value is given as 1.9 ± 1.0%.

For the compound `COc1ccccc1Oc1ccc(N(Cc2cccnc2)S(=O)(=O)CC(F)(F)F)cc1Cl` [Example 9, N-(4-(2-Methoxyphenoxy)-3-chlorophenyl)-N-(2,2,2-trifluoroethylsulfonyl)pyrid-3-ylmethylamine], the Emax at mGlu2 receptor (setting [1]) was 2.4 ± 0.3%; at mGlu2 receptor (setting [2]), 4.7 ± 0.4%; at mGlu2 receptor (setting [3]) it was 20.5 ± 4.3%; at mGlu2 receptor (setting [4]) it was 60 ± 10.6%; on mGlu2 receptor (1 μM Glutamate + 1 μM compound) it was 93.1 ± 2.5%; on mGlu2 receptor (3 μM Glutamate + 1 μM compound), 102 ± 8.1%. For the same compound, the Emax is 103 ± 6.2% at mGlu2 receptor (setting [5]) and 108 ± 12.3% at mGlu2 receptor (setting [6]). For the same compound, on mGlu2 receptor, the Emax at 1 µM stood at 4.2 ± 2.7%.

The compound `O=S(=O)(CC(F)(F)F)N(Cc1cccnc1)c1cccc(Oc2ccccc2O)c1` [Example 23, N-(3-(2-Hydroxyphenoxy)phenyl)-N-(2,2,2-trifluoroethylsulfonyl)pyrid-3-ylmethylamine] registered a melting point of 57.5 to 60 °C.

`CCS(=O)(=O)N(Cc1cccnc1)c1cccc(-c2ccc(C#N)cc2)c1` [Example 590]: the “Percent Protection” value was found to be 60% with mice (30 mg/kg ip) and 100% in the series on mice (100 mg/kg ip).
